System: cell line U-87
Test: Activity against the cell line U-87
Assay type: cell-based, human
Conditions: potency on an equimolar basis

Compound	activity against the cell line U-87
O=C(CCCCCCNC(=O)c1ccccc1S)Nc1ccccc1 [Compound 212, 2-Mercapto-N-(6-phenylcarbamoyl-hexyl)benzamide]	most potent on an equimolar basis
O=C(CCCCCCCNC(=O)c1ccccc1S)Nc1ccccc1 [Compound 213]	most potent on an equimolar basis

Source: US8455688B2, “HDAC inhibitors” (Lixte Biotechnology, Inc., priority 2007, dated 2013)
